# Active and inactive are the calls of the source. No cut-off for these calls is given here.
# B1: Long-chain-fatty-acid--AMP ligase FadD32 (Mycobacterium tuberculosis (strain ATCC 25618 / H37Rv)), O53580 (protein)
# chain: MFVTGESGMAYHNPFIVNGKIRFPANTNLVRHVEKWAKVRGDKLAYRFLDFSTERDGVARDILWSDFSARNRAVGARLQQVTQPGDRVAILCPQNLDYLISFFGALYSGRIAVPLFDPAEPGHVGRLHAVLDDCAPSTILTTTDSAEGVRKFIRARSAKERPRVIAVDAVPTEVAATWQQPEANEETVAYLQYTSGSTRIPSGVQITHLNLPTNVVQVLNALEGQEGDRGVSWLPFFHDMGLITVLLASVLGHSFTFMTPAAFVRRPGRWIRELARKPGETGGTFSAAPNFAFEHAAVRGVPRDDEPPLDLSNVKGILNGSEPVSPASMRKFFEAFAPYGLKQTAVKPSYGLAEATLFVSTTPMDEVPTVIHVDRDELNNQRFVEVAADAPNAVAQVSAGKVGVSEWAVIVDADTASELPDGQIGEIWLHGNNLGTGYWGKEEESAQTFKNILKSRISESRAEGAPDDALWVRTGDYGTYFKDHLYIAGRIKDLVIIDGRNHYPQDLECTAQESTKALRVGYAAAFSVPANQLPQTVFDDSHAGLKFDPEDTSEQLVIVGERAAGTHKLDHQPIVDDIRAAIAVGHGVTVRDVLLVSAGTIPRTSSGKIGRRACRAAYLDGSLRSGVGSPTVFATSD
# Columns and labels:
# [1] = test system: Mycobacterium tuberculosis; assay: Downregulation of PKS13 mRNA expression in Mycobacterium tuberculosis assessed as fold change by qRT-PCR analysis; assay type: functional
# [2] = test system: Mycobacterium tuberculosis; assay: Antitubercular activity against Mycobacterium tuberculosis infected in human THP-1 cells assessed as reduction in colony forming units at 5 to 9 microg/ml incubated for 48 hrs in presence of rifampin; assay type: functional, organism-based; conditions: dose 5-9 µg/ml
# RAW264.7 = assay: Cytotoxicity against mouse RAW264.7 cells assessed as cell viability at 25 microg/ml incubated for 24 hrs by MTT assay; assay type: toxicity, cell-based; conditions: raw264.7, 24 h, dose 25 µg/ml
# THP-1 = assay: Cytotoxicity against PMA-differentiated human THP-1 cells assessed as reduction in cell viability at 25 microg/ml incubated for 24 hrs by MTT assay; assay type: toxicity, cell-based; conditions: thp-1, 24 h, dose 25 µg/ml
# [3] = test system: Mycobacterium tuberculosis; assay: Downregulation of papA mRNA expression in Mycobacterium tuberculosis assessed as fold change by qRT-PCR analysis; assay type: functional
# [4] = target: T1, Long-chain-fatty-acid--AMP ligase FadD32 (Mycobacterium tuberculosis (strain ATCC 25618 / H37Rv)) (UniProt O53580); assay: Inhibition of Mycobacterium tuberculosis H37Rv recombinant fadD32 at 200 uM relative to control
# T1 sequence (whole entry): B1 chain
# [5] = Toxicity in BALB/c mouse assessed as change in ALP level in serum at 2.5 mg/kg, ip measured for 14 days; assay type: organism-based; conditions: in vivo, 336 h, time 14 day
# [6] = Toxicity in BALB/c mouse assessed as change in SGOT level in serum at 2.5 mg/kg, ip measured for 14 days; assay type: organism-based; conditions: in vivo, 336 h, time 14 day
# [7] = Toxicity in BALB/c mouse assessed as change in BUN level in serum at 2.5 mg/kg, ip measured for 14 days; assay type: organism-based; conditions: in vivo, 336 h, time 14 day
# [8] = test system: Mycobacterium tuberculosis; assay: Downregulation of IspD mRNA expression in Mycobacterium tuberculosis assessed as fold change by qRT-PCR analysis; assay type: functional
# [9] = test system: Mycobacterium tuberculosis; assay: Downregulation of esxH mRNA expression in Mycobacterium tuberculosis assessed as fold change by qRT-PCR analysis; assay type: functional
# Escherichia coli = assay: Antibacterial activity against Escherichia coli assessed as inhibition of bacterial growth upto 200 microg/ml incubated for 5 days by Alamar Blue based assay; assay type: functional, organism-based; conditions: dose <= 200.0 µg/ml, time 5.0 day
# [10] = test system: Mycobacterium tuberculosis; assay: Antitubercular activity against Mycobacterium tuberculosis infected in mouse RAW264.7 cells assessed as reduction in colony forming units at 5 to 9 microg/ml incubated for 48 hrs in presence of isoniazid; assay type: functional, organism-based; conditions: dose 5-9 µg/ml
# [11] = test system: Mycobacterium tuberculosis; assay: Antitubercular activity against Mycobacterium tuberculosis infected in mouse RAW264.7 cells assessed as reduction in colony forming units at 5 to 9 microg/ml incubated for 48 hrs in presence of rifampin; assay type: functional, organism-based; conditions: dose 5-9 µg/ml
# [12] = target: T2, Long-chain-fatty-acid--AMP ligase FadD32 (Mycobacterium tuberculosis (strain ATCC 25618 / H37Rv), UniProt O53580); assay: Uncompetitive inhibition of Mycobacterium tuberculosis H37Rv recombinant FadD32 assessed as inhibition constant in presence of lauric acid by Lineweaver-burk plot analysis
# T2 sequence (O53580 whole entry): B1 chain
# [13] = test system: Mycobacterium tuberculosis; assay: Downregulation of CarD mRNA expression in Mycobacterium tuberculosis assessed as fold change by qRT-PCR analysis; assay type: functional
# [14] = test system: Mycobacterium tuberculosis; assay: Antitubercular activity against Mycobacterium tuberculosis infected in mouse RAW264.7 cells assessed as reduction in colony forming units at 5 to 9 microg/ml incubated for 48 hrs in presence of ethambutol; assay type: functional, organism-based; conditions: dose 5-9 µg/ml
# [15] = test system: Mycobacterium tuberculosis; assay: Downregulation of fadD32 mRNA expression in Mycobacterium tuberculosis assessed as fold change by qRT-PCR analysis; assay type: functional
# [16] = test system: Mycobacterium tuberculosis; assay: Antitubercular activity against Mycobacterium tuberculosis H37Rv infected in BALB/c mouse chronic model assessed as reduction in tubercular granulomas at 2.5 mg/kg, ip measured after 4 weeks by H and E staining based analysis; assay type: functional, organism-based
# [17] = test system: Mycobacterium tuberculosis; assay: Downregulation of hspX mRNA expression in Mycobacterium tuberculosis assessed as fold change by qRT-PCR analysis; assay type: functional
# [18] = test system: Mycobacterium tuberculosis; assay: Downregulation of efpA mRNA expression in Mycobacterium tuberculosis assessed as fold change by qRT-PCR analysis; assay type: functional
# [19] = test system: Mycobacterium tuberculosis; assay: Antitubercular activity against Mycobacterium tuberculosis infected in human THP-1 cells assessed as reduction in colony forming units at 5 to 9 microg/ml incubated for 48 hrs in presence of isoniazid; assay type: functional, organism-based; conditions: dose 5-9 µg/ml
# [20] = test system: Mycobacterium tuberculosis; assay: Downregulation of ctpC mRNA expression in Mycobacterium tuberculosis assessed as fold change by qRT-PCR analysis; assay type: functional
# [21] = Toxicity in BALB/c mouse assessed as change in creatine level in serum at 2.5 mg/kg, ip measured for 14 days; assay type: organism-based; conditions: in vivo, 336 h, time 14 day
# [22] = Toxicity in BALB/c mouse assessed as animal survival at 2.5 mg/kg, ip measured for 14 days; assay type: organism-based; conditions: in vivo, 336 h, time 14 day
# [23] = test system: Mycobacterium tuberculosis; assay: Antitubercular activity against Mycobacterium tuberculosis H37Rv infected in BALB/c mouse chronic model assessed as reduction in reduction in mycobacterial burden in lung at 2.5 mg/kg, ip measured after 21 to 25 days by H and E staining based analysis; assay type: functional, organism-based; conditions: time 21-25 day
# [24] = test system: Mycobacterium tuberculosis; assay: Downregulation of groES mRNA expression in Mycobacterium tuberculosis assessed as fold change by qRT-PCR analysis; assay type: functional
# [25] = Toxicity in BALB/c mouse assessed as body weight loss at 2.5 mg/kg, ip measured for 14 days; assay type: organism-based; conditions: in vivo, 336 h, time 14 day
# [26] = target: T3, Long-chain-fatty-acid--AMP ligase FadD28 (Mycobacterium tuberculosis) (UniProt P9WQ59); assay: Inhibition of Mycobacterium tuberculosis H37Rv recombinant fadD28 at 200 uM relative to control
# T3 sequence (whole entry): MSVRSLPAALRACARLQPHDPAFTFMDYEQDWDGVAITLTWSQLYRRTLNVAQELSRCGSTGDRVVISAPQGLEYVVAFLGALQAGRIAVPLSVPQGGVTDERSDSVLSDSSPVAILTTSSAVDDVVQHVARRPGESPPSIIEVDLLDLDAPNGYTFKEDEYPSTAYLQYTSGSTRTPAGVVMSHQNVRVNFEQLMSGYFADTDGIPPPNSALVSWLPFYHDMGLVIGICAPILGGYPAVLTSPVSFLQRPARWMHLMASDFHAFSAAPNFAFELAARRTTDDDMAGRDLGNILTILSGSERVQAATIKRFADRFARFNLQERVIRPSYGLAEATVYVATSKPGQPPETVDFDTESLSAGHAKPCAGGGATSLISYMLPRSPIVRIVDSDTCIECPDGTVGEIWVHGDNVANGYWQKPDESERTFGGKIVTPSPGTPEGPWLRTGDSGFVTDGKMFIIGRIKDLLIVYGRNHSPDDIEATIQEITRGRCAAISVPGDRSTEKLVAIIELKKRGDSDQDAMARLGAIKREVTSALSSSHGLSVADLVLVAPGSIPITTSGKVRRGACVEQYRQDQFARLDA
# [27] = Toxicity in BALB/c mouse assessed as change in SGPT level in serum at 2.5 mg/kg, ip measured for 14 days; assay type: organism-based; conditions: in vivo, 336 h, time 14 day
# [28] = target: T1, Long-chain-fatty-acid--AMP ligase FadD32 (Mycobacterium tuberculosis (strain ATCC 25618 / H37Rv)); assay: Inhibition of Mycobacterium tuberculosis H37Rv recombinant FadD32 upto 200 uM in presence of lauric acid by Michaelis-Menten plot analysis
# [29] = test system: Mycobacterium tuberculosis; assay: Downregulation of murE mRNA expression in Mycobacterium tuberculosis assessed as fold change by qRT-PCR analysis; assay type: functional
# [30] = test system: Mycobacterium tuberculosis; assay: Antitubercular activity against Mycobacterium tuberculosis infected in human THP-1 cells assessed as reduction in colony forming units at 5 to 9 microg/ml incubated for 48 hrs in presence of ethambutol; assay type: functional, organism-based; conditions: dose 5-9 µg/ml
# [31] = target: T2, Long-chain-fatty-acid--AMP ligase FadD32; assay: Partial noncompetitive inhibition of Mycobacterium tuberculosis H37Rv recombinant FadD32 assessed as inhibition constant in presence of ATP by Lineweaver-burk plot analysis
# [32] = test system: Mycobacterium tuberculosis; assay: Antitubercular activity against Mycobacterium tuberculosis infected in human THP-1 cells assessed as reduction in colony forming units at 5 to 9 microg/ml incubated for 48 hrs; assay type: functional, organism-based; conditions: dose 5-9 µg/ml
# [33] = test system: Mycobacterium tuberculosis; assay: Downregulation of fadD28 mRNA expression in Mycobacterium tuberculosis assessed as fold change by qRT-PCR analysis; assay type: functional
# [34] = test system: Mycobacterium tuberculosis; assay: Antitubercular activity against Mycobacterium tuberculosis H37Rv assessed as inhibition of bacterial growth incubated for 5 days in presence of rifampicin by Alamar Blue based assay; assay type: functional, organism-based; conditions: time 5.0 day
# [35] = test system: Mycobacterium tuberculosis; assay: Antitubercular activity against Mycobacterium tuberculosis H37Rv assessed as inhibition of bacterial growth incubated for 5 days by Alamar Blue based assay; assay type: functional, organism-based; conditions: 120 h
# [36] = test system: Mycobacterium tuberculosis; assay: Antitubercular activity against Mycobacterium tuberculosis infected in mouse RAW264.7 cells assessed as reduction in colony forming units at 5 to 9 microg/ml incubated for 48 hrs; assay type: functional, organism-based; conditions: dose 5-9 µg/ml
# [37] = test system: Mycolicibacterium smegmatis; assay: Antimycobacterial activity against Mycobacterium smegmatis assessed as inhibition of bacterial growth incubated for 5 days by Alamar Blue based assay; assay type: functional, organism-based; conditions: 120 h
# [38] = test system: Mycobacterium tuberculosis; assay: Antitubercular activity against Mycobacterium tuberculosis H37Rv assessed as inhibition of bacterial growth incubated for 5 days in presence of isoniazid by Alamar Blue based assay; assay type: functional, organism-based; conditions: time 5.0 day
# [39] = test system: Mycobacterium tuberculosis; assay: Antitubercular activity against Mycobacterium tuberculosis by alamar blue assay; assay type: functional
# [40] = compound: Oc1c(Br)cc(Br)cc1-c1cc(C(F)(F)F)no1; assay: Binding affinity to Mycobacterium tuberculosis H37Rv recombinant FadD32 assessed as Km in presence of ATP by Michaelis-Menten plot analysis
# [41] = compound: Oc1c(Br)cc(Br)cc1-c1cc(C(F)(F)F)no1; assay: Binding affinity to Mycobacterium tuberculosis H37Rv recombinant FadD32 assessed as Km in presence of lauric acid by Michaelis-Menten plot analysis
molecule,measurement,setting,value
Oc1c(Br)cc(Br)cc1-c1cc(C(F)(F)F)no1,fold change (FC),[1],2
same,Activity,[2],Active
same,Activity,RAW264.7,Non-toxic
same,Activity,THP-1,Non-toxic
same,fold change (FC),[3],2
same,inhibition,[4],95%
same,Activity,[5],Non-toxic
same,Activity,[6],Non-toxic
same,Activity,[7],Non-toxic
same,fold change (FC),[8],2
same,fold change (FC),[9],2
same,Activity,Escherichia coli,inactive
same,Activity,[10],Active
same,Activity,[11],Active
same,Ki,[12],48.1 µM
same,fold change (FC),[13],2
same,Activity,[14],Active
same,fold change (FC),[15],2
same,Activity,[16],Active
same,fold change (FC),[17],2
same,fold change (FC),[18],2
same,Activity,[19],Active
same,fold change (FC),[20],2
same,Activity,[21],Non-toxic
same,Activity,[22],Non-toxic
same,Activity,[23],Active
same,fold change (FC),[24],2
same,Activity,[25],Non-toxic
same,inhibition,[26],50%
same,Activity,[27],Non-toxic
same,inhibition,[28],Active
same,fold change (FC),[29],2
same,Activity,[30],Active
same,Ki,[31],55.3 µM
same,Activity,[32],Active
same,fold change (FC),[33],2
same,Activity,[34],Active
same,IC50,[35],4.8 µg/mL
same,Activity,[36],Active
same,IC50,[37],20.8 µg/mL
same,Activity,[38],Active
Nc1ncnc2c1ncn2[C@@H]1O[C@H](COS(=O)(=O)NC(=O)c2ccc(O)cc2)[C@@H](O)[C@H]1O,MIC,[39],> 800 µM
Oc1ccccc1-c1cc(C(F)(F)F)no1,IC50,[35],11.7 µg/mL
COc1ccc(-c2onc(C(F)(F)F)c2-c2ccccc2)c(O)c1,IC50,[35],21.7 µg/mL
B1,Km,[40],248 µM
same,Km,[41],139 µM
